The values that follow come from article PMC2766550 (Peptides, 2009).

“And” between values parts separate entries of the source, which are not always exact repeats. Identical values can stand only once. Like-named read-outs stand apart in the source and are kept apart here. Square brackets hold non-standard residues; d marks the D form. Peptide text beside a SMILES is read from it. dPhe(F5) = N[C@H](Cc1c(F)c(F)c(F)c(F)c1F)C(=O)O

Test [1] has as its target T1, hGRP-receptor (Homo sapiens, UniProt P30550). Briefly: Whole cell radioligand binding, hGRP-receptor transfected Balb 3T3 cells. To be noted: b34 values for receptors expressed in Balb 3T3 cells.
The target in test [2] is T1, hGRP-receptor. In words: Whole cell radioligand binding, HuTu-80 cells.
Test [3] addresses T2, hNMB-receptor (Homo sapiens, UniProt P28336). In words: Whole cell radioligand binding, hNMB-receptor transfected Balb 3T3 cells. As to conditions: for IC50: IC50 hNMB-R Balb-3T3, hNMB-receptor transfected Balb 3T3 cells, 125I-[D-Tyr0]NMB, 1 h, 22°C, mean ± S.E.
The target in test [4] is T2, hNMB-receptor. Briefly: Whole cell radioligand binding, hNMB-receptor transfected NCI-H1299 cells.
Test [5] addresses T3, hBRS-3 receptor (Homo sapiens, UniProt P32247).
T3 sequence (P32247 1-399): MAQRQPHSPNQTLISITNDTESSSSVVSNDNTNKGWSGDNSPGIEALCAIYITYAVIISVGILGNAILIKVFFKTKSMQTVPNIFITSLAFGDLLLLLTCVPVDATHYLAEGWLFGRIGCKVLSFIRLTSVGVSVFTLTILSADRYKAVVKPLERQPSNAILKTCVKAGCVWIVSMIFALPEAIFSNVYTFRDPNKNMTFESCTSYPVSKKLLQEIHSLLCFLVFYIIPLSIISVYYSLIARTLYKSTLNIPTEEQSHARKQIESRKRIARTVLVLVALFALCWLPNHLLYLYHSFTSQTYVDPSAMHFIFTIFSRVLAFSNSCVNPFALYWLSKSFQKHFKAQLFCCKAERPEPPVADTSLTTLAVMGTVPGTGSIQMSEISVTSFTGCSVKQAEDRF
Briefly: Whole cell radioligand binding, hBRS-3 transfected Balb 3T3 cells.

Test [6] has as its target T1, hGRP-receptor. Briefly: [3H]inositol phosphate generation, hGRP-receptor transfected Balb 3T3 cells. As to conditions: for [3H]IP hGRPR-R-Balb-3T3 Ag/Antag: agonist/antagonist classification, up to 10 μM. The format is cell-based.
The target of test [7] is T1, hGRP-receptor. Briefly: [3H]inositol phosphate generation, HuTu-80 cells. As to conditions: for [3H]IP HuTu-80 (hGRP-R) Ag/Antag: agonist/antagonist classification, up to 10 μM. The format is cell-based.
Test [8] addresses T2, hNMB-receptor. Briefly: cell-based. As to conditions: for [3H]IP NCI-H1299 (hNMB-R) Ag/Antag: agonist/antagonist classification, up to 10 μM.
Test [9] addresses T2, hNMB-receptor. The class given is cell-based. As to conditions: for [3H]IP hNMB-R-Balb-3T3 Ag/Antag: agonist/antagonist classification, up to 10 μM; for agonist activity at hNMB-receptor: concentrations up to 10 μM, hNMB-receptor transfected Balb 3T3 or NCI-H1299 cells.
The test system of test [10] is hGRP-receptors. As to conditions: cited from earlier work.
Test [11] addresses T2, hNMB-receptor. As to conditions: cited from earlier work.

T2 sequence (P28336 whole entry): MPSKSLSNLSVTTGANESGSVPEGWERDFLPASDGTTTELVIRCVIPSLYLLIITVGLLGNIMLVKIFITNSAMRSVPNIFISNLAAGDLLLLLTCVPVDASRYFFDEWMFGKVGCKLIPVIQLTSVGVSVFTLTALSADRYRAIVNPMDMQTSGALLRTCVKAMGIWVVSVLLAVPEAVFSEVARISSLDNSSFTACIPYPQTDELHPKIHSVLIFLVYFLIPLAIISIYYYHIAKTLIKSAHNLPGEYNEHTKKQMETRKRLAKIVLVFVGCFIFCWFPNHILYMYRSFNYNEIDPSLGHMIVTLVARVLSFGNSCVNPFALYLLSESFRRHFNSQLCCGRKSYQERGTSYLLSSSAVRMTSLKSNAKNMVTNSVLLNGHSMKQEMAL
T1 sequence (P30550 whole entry): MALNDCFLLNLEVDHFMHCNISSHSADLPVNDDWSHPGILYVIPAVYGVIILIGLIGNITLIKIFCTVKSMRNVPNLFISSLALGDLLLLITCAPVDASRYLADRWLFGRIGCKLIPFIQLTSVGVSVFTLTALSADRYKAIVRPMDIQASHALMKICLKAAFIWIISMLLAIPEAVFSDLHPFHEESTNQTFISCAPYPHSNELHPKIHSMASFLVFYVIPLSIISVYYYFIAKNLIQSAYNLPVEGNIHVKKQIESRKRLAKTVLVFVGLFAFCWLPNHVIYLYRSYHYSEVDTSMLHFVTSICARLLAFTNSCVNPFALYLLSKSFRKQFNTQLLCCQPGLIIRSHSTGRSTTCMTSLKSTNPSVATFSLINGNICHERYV

For the molecule `COC(=O)[C@H](CC(C)C)NC(=O)[C@H](Cc1c[nH]cn1)NC(=O)[C@@H](C)NC(=O)[C@@H](NC(=O)[C@H](C)NC(=O)[C@H](Cc1c[nH]c2ccccc12)NC(=O)[C@H](CCC(N)=O)NC(=O)[C@H](N)Cc1c(F)c(F)c(F)c(F)c1F)C(C)C` [Peptide 18, [D-F-5, Phe^6, D-Ala^11]Bn(6-13)Metyl ester (ME)] (H-[dPhe(F5)]QWAV[dA]HL-OMe), the “selectivity for hGRP-receptor over hNMB-receptor (binding affinities)” value (shortened to “selectivity for hGRP-receptor”) in test [1] is > 11,000 fold and > 10,000 fold. Moreover, the IC50 is 0.00012 ± 1e-05 µM in test [2]; over 10 µM in [3]; over 10 µM in [4]; over 10 µM in [5]; 0.0036 ± 0.0002 µM in [6]; 0.0042 ± 0.0009 µM in [7].
With `CCCNC(=O)[C@H](CC(C)C)NC(=O)[C@H](Cc1c[nH]cn1)NC(=O)CNC(=O)[C@@H](NC(=O)[C@H](C)NC(=O)[C@H](Cc1c[nH]c2ccccc12)NC(=O)[C@H](CCC(N)=O)NC(=O)[C@H](N)Cc1ccccc1)C(C)C` [Peptide 11, [D-Phe^6-Bn](6-13)Propylamide (PA)], the “selectivity for hGRP-receptor” value in [1] was ≥ 1,000 fold. For the same molecule, the IC50 in test [2] turned out to be 0.00039 ± 0.00012 µM; in test [3], 2.44 ± 0.16 µM; in test [4] it was 3.09 ± 0.07 µM; in test [5], 1.91 ± 0.3 µM; in test [6], 0.031 ± 0.001 µM; in test [7], 0.0363 ± 0.001 µM.
`CCOC(=O)[C@H](CC(C)C)NC(=O)[C@H](Cc1c[nH]cn1)NC(=O)CNC(=O)[C@@H](NC(=O)[C@H](C)NC(=O)[C@H](Cc1c[nH]c2ccccc12)NC(=O)[C@H](CCC(N)=O)NC(=O)[C@H](N)Cc1ccccc1)C(C)C` [Peptide 20, [D-Phe^6]Bn-(6-13)Ethyl ester]: the “selectivity for hGRP-receptor” value in [1] was > 10,000 fold. In addition, the IC50 was 0.00014 ± 3e-05 µM in [2]; over 10 µM in [3]; over 10 µM in [4]; 5.3 ± 1.4 µM in [5]; 0.002 ± 0.0003 µM in [6]; 0.0014 ± 0.0008 µM in test [7].
Take `COC(=O)[C@H](CC(C)C)NC(=O)[C@H](Cc1c[nH]cn1)NC(=O)CNC(=O)[C@@H](NC(=O)[C@H](C)NC(=O)[C@H](Cc1c[nH]c2ccccc12)NC(=O)[C@H](CCC(N)=O)NC(=O)[C@H](N)Cc1ccccc1)C(C)C` [Peptide 17, [D-Phe^6]Bn-(6-13)Methyl ester (ME)]: the “selectivity for hGRP-receptor” value in test [1] was > 10,000 fold. Besides, the IC50 in test [2] is 0.00398 ± 0.0008 µM; in test [3] it was over 10 µM; in test [4], over 10 µM; in [5], 5.29 ± 1.99 µM; in test [6], 0.0155 ± 0.001 µM; in test [7], 0.0109 ± 0.0015 µM. The same molecule returned an IC50 in [8] of over 10 µM.
For `COc1ccc(C2(CNC(=O)C(C)(Cc3c[nH]c4ccccc34)NC(=O)Nc3ccc([N+](=O)[O-])cc3)CCCCC2)nc1` (centres unmarked) [Peptide 33, 3-(1H-Indol-3-yl)-N-[1-(5-methoxy-pyridin-2-yl)-cyclohexylmethyl]-2-methyl-2-[3-(4-nitro-phenyl)-ureido]-propionamide, reference compound], the values for the IC50 in test [2], in [5] and in test [7] were 0.17 ± 0.011 µM, over 10 µM and 0.275 ± 0.013 µM, respectively. The “[3H]IP hGRPR-R-Balb-3T3 Ag/Antag” value in test [6] was “Antag”. Besides, the “[3H]IP HuTu-80 (hGRP-R) Ag/Antag” value in test [7] is listed as “Antag”. In test [9], the “[3H]IP hNMB-R-Balb-3T3 Ag/Antag” value is given as “Antag”. Also, the “agonist activity at hNMB-receptor” value in [9] was “did not have agonist activity”. In test [8], the “[3H]IP NCI-H1299 (hNMB-R) Ag/Antag” value is listed as “Antag”. Moreover, the “affinity for hGRP-receptors in a second study” value in test [10] is 20 to 30 nM. Moreover, the Ki in test [10] (read-out: Ki for hGRP-receptors in a previous study) was 0.001 µM.
As to `CC(C)C[C@H](NC(=O)[C@H](CC(C)C)NC(=O)[C@@H](Cc1c[nH]c2ccccc12)NC(=O)[C@H](Cc1ccccc1)NC(=O)[C@@H](Cc1c[nH]c2ccccc12)NC(=O)[C@H](CCC(N)=O)NC(=O)[C@H](CCC(N)=O)NC(=O)[C@@H]1CCCN1C(=O)[C@H](CCCCN)NC(=O)[C@@H]1CCCN1C(=O)[C@H](N)CCCN=C(N)N)C(N)=O` [Peptide 3, [D-Arg^1, D-Trp^7,9, Leu^11]SP] (H-[dR]PKPQQ[dW]F[dW]LL-NH2), the IC50 is 1.78 ± 0.05 µM in test [2]; 4.48 ± 0.86 µM in [3]; 1.59 ± 0.03 µM in [4]; over 10 µM in test [5]; 1.58 ± 0.081 µM in test [6]; 8.31 ± 0.154 µM in test [7]. The midpoint of inhibition in test [8], the IC50, lay at 2.34 ± 0.08 µM.
`CSCC[C@H](NC(=O)[C@H](CC(C)C)NC(=O)[C@@H](Cc1ccccc1)NC(=O)CNC(=O)[C@@H](NC(=O)[C@H](C)NC(=O)[C@H](Cc1c[nH]c2ccccc12)NC(=O)[C@H](CCC(N)=O)NC(=O)[C@H](CC(N)=O)NC(=O)CNC(=O)[C@H](Cc1ccc(O)cc1)NC(=O)[C@H](CCCNC(=N)N)NC(=O)[C@H](CCC(N)=O)NC(=O)[C@@H]1CCC(=O)N1)C(C)C)C(N)=O` [Peptide 2, [Tyr^4, D-Phe^12]Bn]: the IC50 in test [2] was 0.912 ± 0.076 µM; in test [3], 3.09 ± 0.32 µM; in [4], 1.86 ± 0.06 µM; in [5], over 10 µM; in [6], over 10 µM; in test [7], 8.13 ± 0.226 µM. In addition, the EC50 in test [8] came out at 0.103 ± 0.005 µM.
Turning to `CC(Cc1c[nH]c2ccccc12)(NC(=O)Nc1ccc([N+](=O)[O-])cc1)C(=O)NCC1(c2ccccn2)CCCCC1` (centres unmarked) [Peptide 34, 3-(1H-Indol-3-yl)-2-methyl-2-[3(4-nitro-phenyl)-ureido]-N-(1-pyridin-2-yl-cyclohexylmethyl)-propionamide, reference compound], the IC50 in test [2] was 1.74 ± 0.105 µM; in [3], 0.00051 ± 2e-05 µM; in [4], 0.00025 ± 2e-05 µM; in test [5], over 10 µM; in test [6], over 3 µM; in test [7], 1.78 ± 0.057 µM. The IC50 was 0.0245 ± 0.0012 µM in [8] and 0.015 µM in [11] (read-out: IC50 for hNMB-receptors, other studies on human cells). Also, in test [3] (listed as PD168368), the “selectivity for hNMB-receptor over hGRP-receptor (binding affinities)” value is on record as 7,000 fold. In [6], the “[3H]IP hGRPR-R-Balb-3T3 Ag/Antag” value was “No act”. The “hGRPR Ag/Antag” value in test [7] (Table 5 species comparison, human values of this study (HuTu-80)) is listed as “Antag”. In [7], the “[3H]IP HuTu-80 (hGRP-R) Ag/Antag” value is given as “Antag”. Moreover, the “selectivity for hNMB-receptor over hGRP-receptor based on potency for inhibiting agonist-stimulated [3H]IP” value in [9] lay in the range of 33 to 100 fold. Moreover, the “[3H]IP hNMB-R-Balb-3T3 Ag/Antag” value in [9] was “Antag”. Moreover, the “agonist activity at hNMB-receptor” value in test [9] is reported as “did not have agonist activity”. For the same molecule, the “hNMBR Ag/Antag” value in test [8] (Table 5 species comparison, human values of this study (NCI-H1299)) was “Antag”. In [8], the “[3H]IP NCI-H1299 (hNMB-R) Ag/Antag” value is “Antag”. For the same molecule, the “hNMB- or rNMB-receptor selectivity in other studies” value in [11] is 40 fold.
